ChEMBL document CHEMBL5120828, “Identification and optimisation of a pyrimidopyridone series of IRAK4 inhibitors” (Bioorg Med Chem, 2022)

What was measured:
[1] = biological target: T1, Interleukin-1 receptor-associated kinase 4 (Homo sapiens, UniProt Q9NWZ3); assay: Inhibition of human recombinant IRAK4 assessed as unphosphorylated KKARFSRFAGSSPSQSSMVAR peptide substrate measured after 2 hrs by LC-MS/MS analysis
T1 sequence (Q9NWZ3 whole entry): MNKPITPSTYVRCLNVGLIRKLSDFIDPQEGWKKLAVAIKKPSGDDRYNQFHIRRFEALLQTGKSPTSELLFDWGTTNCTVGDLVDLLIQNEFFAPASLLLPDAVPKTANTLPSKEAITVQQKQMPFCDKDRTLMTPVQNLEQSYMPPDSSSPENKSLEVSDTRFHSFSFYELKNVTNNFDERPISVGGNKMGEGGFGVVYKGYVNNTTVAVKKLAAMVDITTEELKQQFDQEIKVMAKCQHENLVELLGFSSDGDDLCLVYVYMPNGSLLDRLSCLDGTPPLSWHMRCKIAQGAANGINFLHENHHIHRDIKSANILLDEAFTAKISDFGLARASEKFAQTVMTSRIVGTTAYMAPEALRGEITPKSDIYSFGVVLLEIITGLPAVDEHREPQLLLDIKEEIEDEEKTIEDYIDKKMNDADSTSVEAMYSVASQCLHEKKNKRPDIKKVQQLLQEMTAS

[2] = Metabolic stability in human liver microsomes assessed as intrinsic clearance; assay type: ADME
[3] = biological target: T1, Interleukin-1 receptor-associated kinase 4; assay: Inhibition of IRAK4 in IL1-stimulated human KARPAS-299 cells assessed as fluorescence intensity; assay type: cell-based
[4] = Octanol/water partition coefficient, logP of compound at pH 7.4 by shake-flask method; assay type: physicochemical
[5] = Intrinsic permeability across apical to basolateral side in human Caco-2 cells; assay type: ADME, cell-based
[6] = Efflux ratio of permeability in human Caco-2 cells; assay type: ADME, cell-based

Row | SMILES | IC50 [1] [nM] | CLint [2] [µL/min/mg] | IC50 [3] [nM] | logD [4] | Papp A→B [5] [×10⁻⁶ cm/s] | efflux ratio [6]
1 | CN1CC(n2cc(Nc3nc(NC4(C)CC4)c4c(=O)n(C)ccc4n3)cn2)CCC1=O (stereo not given) | 2 | 89 | 75 | 2.4 |  | 
2 | Cn1cc(Nc2nc(NC3(C)CC3)c3nc(CC#N)ccc3n2)cn1 |  | 82 |  | 2.7 |  | 
3 | CN1CCC(n2cc(Nc3nc(NC4(C)CC4)c4c(=O)n(-c5nnc[nH]5)ccc4n3)cn2)CC1 | 11 | 4.7 | 320 | 1.8 | 16 | 4.5
4 | CC(=O)N1CCC(n2cc(Nc3nc(NC4(C)CC4)c4c(=O)n(C)ccc4n3)cn2)CC1 | 2 | 83 | 49 | 2.5 | 48 | 6
5 | COC(=O)N1CCN([C@H]2CC[C@H](Nc3nc(Nc4cnn(C)c4)nc4ccn(CC#N)c(=O)c34)CC2)CC1 | 23 | 25 | 440 | 2.3 |  | 
6 | CN1CC2(CC(n3cc(Nc4nc(NC5(C)CC5)c5c(=O)n(-c6cn(C)nn6)ccc5n4)cn3)C2)C1 | 15 | < 3 | 500 | 1.7 |  | 
7 | C[C@H]1C[C@@H](n2cc(Nc3nc(NC4(C)CC4)c4c(=O)n(C)ccc4n3)cn2)CCN1C (relative stereo) | 0.6 | 31 | 18 | 2.7 |  | 
8 | CN1CCC(n2cc(Nc3nc(NC4(C)CC4)c4c(=O)n(CC(F)F)ccc4n3)cn2)CC1 | 2 | 50 | 83 | 2.9 |  | 
9 | CN1CC2(CC(n3cc(Nc4nc(NC5(C)CC5)c5c(=O)n(C)ccc5n4)cn3)C2)C1 | 1 | 9.7 | 33 | 1.4 | 5.7 | 15
10 | Cn1cc(Nc2nc(NC3(C)CC3)c3c(=O)n(C)ccc3n2)cn1 | 8 | 13 | 190 | 2.9 | 67 | 0.75
11 | CN(C)CC(=O)N1CCC(n2cc(Nc3nc(NC4(C)CC4)c4c(=O)n(C)ccc4n3)cn2)CC1 | 1 | 40 | 16 | 1.7 | 4.3 | 37
12 | CN1CCC(n2cc(Nc3nc(NC4(C)CC4)c4c(=O)n(C)ccc4n3)cn2)CC1 | 1 | 25 | 39 | 2.4 | 17 | 3.1
13 | CN1CCC(n2cc(Nc3nc(NC4(C)CC4)c4c(=O)n(-c5cncnc5)ccc4n3)cn2)CC1 | 4 | 38 | 72 | 2.3 |  | 5
14 | CN1CC[C@H](n2cc(Nc3nc(NC4(C)CC4)c4c(=O)n(C)ccc4n3)cn2)[C@H](F)C1 (racemic) | 0.6 | 61 | 10 | 2.7 |  | 
15 | CC(C)n1ccc2nc(Nc3cnn(C4CCN(C)CC4)c3)nc(NC3(C)CC3)c2c1=O | 5 | 32 | 210 | 3.3 |  | 
16 | CN1CCC(n2cc(Nc3nc(NC4(C)CC4)c4c(=O)n(C(F)F)ccc4n3)cn2)CC1 | 3 | 31 | 170 | 3.3 |  | 
17 | C[C@@H]1C[C@@H](n2cc(Nc3nc(NC4(C)CC4)c4c(=O)n(C)ccc4n3)cn2)CCN1C (racemic) | < 1 | 88 | 50 | 2.2 |  | 

Row | SMILES | IC50 [1] [nM] | CLint [2] [µL/min/mg] | IC50 [3] [nM] | logD [4] | Papp A→B [5] [×10⁻⁶ cm/s] | efflux ratio [6]
18 | C[C@@H](F)Cn1ccc2nc(Nc3cnn(C4CCN(C)CC4)c3)nc(NC3(C)CC3)c2c1=O | 21 | 41 | 110 | 2.9 |  | 
19 | CN(C)C(=O)CN1CCC(n2cc(Nc3nc(NC4(C)CC4)c4c(=O)n(C)ccc4n3)cn2)CC1 | 0.8 | 57 | 46 | 2.4 | 15 | 8.8
20 | C[C@H](CF)n1ccc2nc(Nc3cnn(C4CCN(C)CC4)c3)nc(NC3(C)CC3)c2c1=O | 5 | 47 | 170 | 2.8 |  | 
21 | CN1C[C@H]2C[C@@H]1C[C@@H]2n1cc(Nc2nc(NC3(C)CC3)c3c(=O)n(C)ccc3n2)cn1 | 16 | 14 | 320 | 1.2 |  | 
22 | CN1CCC(n2cc(Nc3nc(NC4(C)CC4)c4c(=O)n(C5CC5)ccc4n3)cn2)CC1 | 4 | 25 | 74 | 2.5 |  | 
23 | C[C@@H](CF)n1ccc2nc(Nc3cnn(C4CCN(C)CC4)c3)nc(NC3(C)CC3)c2c1=O | 4 | 51 | 150 | 3 |  | 
24 | CN1C[C@@H]2C[C@H]1C[C@@H]2n1cc(Nc2nc(NC3(C)CC3)c3c(=O)n(C)ccc3n2)cn1 | 3 | 17 | 90 | 1.4 |  | 
25 | COC(=O)N1CCN([C@H]2CC[C@H](Nc3nc(Nc4cnn(C)c4)nc4ccc(C)nc34)CC2)CC1 | 5 | 37 | 180 | 2.6 | 7.9 | 2.1
26 | C[C@H](F)Cn1ccc2nc(Nc3cnn(C4CCN(C)CC4)c3)nc(NC3(C)CC3)c2c1=O | 2 | 47 | 56 | 2.9 |  | 
27 | CN1CC[C@H](n2cc(Nc3nc(NC4(C)CC4)c4c(=O)n(C)ccc4n3)cn2)[C@@H](F)C1 (racemic) | 1 | 98 | 45 | 3.2 |  | 
28 | CN1CCC(n2cc(Nc3nc(NC4(C)CC4)c4c(=O)n(-c5cnn[nH]5)ccc4n3)cn2)CC1 | 1 | 20 | 69 | 2.5 | 3.3 | 28
29 | CN1CC2(CC(n3cc(Nc4nc(NC5(C)CC5)c5c(=O)n(CC(F)F)ccc5n4)cn3)C2)C1 | 4 | 9.6 | 90 | 2 | 12 | 7.1
30 | COC(=O)N1CCN([C@H]2CC[C@H](Nc3nc(Nc4cnn(C)c4)nc4ccn(C)c(=O)c34)CC2)CC1 | 5 | 22 | 150 | 2.4 | 17 | 3
31 | CN1C[C@H]2C[C@@H]1C[C@@H]2n1cc(Nc2nc(NC3(C)CC3)c3c(=O)n(CC(F)F)ccc3n2)cn1 | 4 | 23 | 150 | 1.9 |  | 
32 | CN1CCC(n2cc(Nc3nc(NC4(C)CC4)c4c(=O)n(-c5cn(C)nn5)ccc4n3)cn2)CC1 | 6 | 49 | 180 | 2.5 | 21 | 2
33 | C[C@H](F)Cn1ccc2nc(Nc3cnn([C@H]4C[C@H]5C[C@@H]4CN5C)c3)nc(NC3(C)CC3)c2c1=O | 3 | 12 | 79 | 2 |  | 
